Reference: patent US10328077B2 (CELGENE CORPORATION, priority 2016, dated 2019)
Read-outs that look alike come from different tables or passages of the source.

Experiments:
[1] = tested on: CD11b expression in THP-1 (AML) cells; test: LSD-1 CD11b cellular assay (flow cytometry); conditions: Homo sapiens, THP-1, 96 h, read-out: THP-1 IC50
human LSD-1 = human LSD-1 (Homo sapiens (Human), UniProt O60341); test: In vitro enzyme inhibition assay LSD-1 (TR-FRET); format: biochemical; conditions: TR-FRET, H3K4me1-biotin labeled peptide
Description: This assay determines the ability of a test compound to inhibit LSD-1 demethylase activity.
The enzymatic assay of LSD-1 activity is based on Time Resolved-Fluorescence Resonance Energy Transfer (TR-FRET) detection.

[2] = tested on: Kasumi-1 AML cancer cell line; test: Kasumi-1 AML cell line proliferation assay (Cell-MTS); format: cell-based; conditions: Homo sapiens, 168 hours
Description: Colorimetric cellular assay to assess the ability of LSD-1 small molecule inhibitors to effect the proliferation of the established AML cancer cell line Kasumi-1
This Cell-MTS assay is a 7-day plate based colorimetric assay which quantifies the amount of newly generated NADH in the presence and absence of test compound. These NADH levels are used as a proxy for the quantification of cancer cell proliferation.
The established cancer cell line Kasumi-1 with a verified p53 mutation were purchased from American Type Culture Collection (ATCC) and routinely passaged according to ATCC published protocols. For routine assay these cells were seeded at a density of 20,000 cells per 96-well. […] At the end of this compound incubation period, 80 μl of media is removed and 20 μL of CellTiter 96® AQueous Non-Radioactive Cell Proliferation Assay solution (Promega) is added. The cells are incubated until the OD490 is >0.6. IC50 values are calculated using the IDBS XLfit software package and include background subtracted OD490 values and normalization to DMSO controls.

[3] = tested on: LXFS 573 SCLC patient-derived xenograft
[4] = Etoposide 24 mg/kg/day SC days 1-3 + vehicle

IC50 [1] [µM]	IC50 (human LSD-1) [µM]	IC50 [2] [µM]	SMILES	% TGD (NCI-H1417 SCLC xenograft; 24 mg/kg Etoposide SC QD x 3) [%]	T − C (NCI-H1417 SCLC xenograft; 24 mg/kg Etoposide SC QD x 3) [days]	median TTE (NCI-H1417 SCLC xenograft; 24 mg/kg Etoposide SC QD x 3) [days]	median TTE (NCI-H1417 SCLC xenograft; etoposide monotherapy 24 mg/kg SC QD×3) [days]	% TGD [3, 4] [%]	T − C [3, 4] [days]	median TTE [3, 4] [days]	median TTE ([3]; etoposide monotherapy 24 mg/kg SC) [days]
< 0.1	< 0.1	< 0.1	COc1ccc(-c2c(-c3ccc(C#N)c(F)c3)nc(N3CCC(N)CC3)n(C)c2=O)cn1 [Example 8, 4-[2-(4-amino-piperidin-1-yl)-5-(6-methoxy-pyridin-3-yl)-1-methyl-6-oxo-1,6-dihydro-pyrimidin-4-yl]-2-fluoro-benzonitrile]	–	–	–	–	–	–	–	–
< 0.1	< 0.1	< 0.1	Cn1c(N2CCC(N)CC2)nc(-c2ccc(C#N)cc2)c(-c2cnn(CC(F)(F)F)c2)c1=O [Example 36, 4-{2-(4-amino-piperidin-1-yl)-1-methyl-6-oxo-5-[1-(2,2,2-trifluoro-ethyl)-1H-pyrazol-4-yl]-1,6-dihydro-pyrimidin-4-yl}-benzonitrile]	–	–	–	–	–	–	–	–
–	–	–	COc1cc([C@@H]2c3cc4c(cc3[C@@H](O[C@@H]3O[C@@H]5CO[C@@H](C)O[C@H]5[C@H](O)[C@H]3O)[C@H]3COC(=O)[C@H]23)OCO4)cc(OC)c1O [Etoposide, etoposide, reference compound]	92	24	50	50	50	21	63	63
